From patent US8507512B2, “Soluble guanylate cyclase activators” (Merck Sharp & Dohme Corp., priority 2009, dated 2013)

Target: T1, sGC α1/β1 heterodimer (Homo sapiens, UniProt Q02108+Q02153)
T1 construct: expressed in transfected cells
T1 sequence (Q02108 1-690 partner): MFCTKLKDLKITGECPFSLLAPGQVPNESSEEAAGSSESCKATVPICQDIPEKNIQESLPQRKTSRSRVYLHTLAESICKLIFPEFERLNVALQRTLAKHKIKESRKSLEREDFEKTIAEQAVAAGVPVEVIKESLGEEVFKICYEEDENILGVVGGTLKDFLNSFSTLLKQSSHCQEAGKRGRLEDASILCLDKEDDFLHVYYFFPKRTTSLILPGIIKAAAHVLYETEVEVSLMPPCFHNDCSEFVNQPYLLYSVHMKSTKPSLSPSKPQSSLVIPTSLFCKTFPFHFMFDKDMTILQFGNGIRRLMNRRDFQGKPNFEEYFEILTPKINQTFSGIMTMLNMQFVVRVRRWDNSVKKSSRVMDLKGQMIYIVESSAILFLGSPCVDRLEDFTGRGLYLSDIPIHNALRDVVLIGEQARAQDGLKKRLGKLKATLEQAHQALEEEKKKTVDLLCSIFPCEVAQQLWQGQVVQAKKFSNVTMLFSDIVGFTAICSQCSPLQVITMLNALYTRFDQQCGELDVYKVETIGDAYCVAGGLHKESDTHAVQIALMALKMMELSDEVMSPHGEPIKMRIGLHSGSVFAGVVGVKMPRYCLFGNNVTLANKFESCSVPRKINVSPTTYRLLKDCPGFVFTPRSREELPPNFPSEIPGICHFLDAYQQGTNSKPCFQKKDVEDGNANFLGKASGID
T1 sequence (Q02153 1-619): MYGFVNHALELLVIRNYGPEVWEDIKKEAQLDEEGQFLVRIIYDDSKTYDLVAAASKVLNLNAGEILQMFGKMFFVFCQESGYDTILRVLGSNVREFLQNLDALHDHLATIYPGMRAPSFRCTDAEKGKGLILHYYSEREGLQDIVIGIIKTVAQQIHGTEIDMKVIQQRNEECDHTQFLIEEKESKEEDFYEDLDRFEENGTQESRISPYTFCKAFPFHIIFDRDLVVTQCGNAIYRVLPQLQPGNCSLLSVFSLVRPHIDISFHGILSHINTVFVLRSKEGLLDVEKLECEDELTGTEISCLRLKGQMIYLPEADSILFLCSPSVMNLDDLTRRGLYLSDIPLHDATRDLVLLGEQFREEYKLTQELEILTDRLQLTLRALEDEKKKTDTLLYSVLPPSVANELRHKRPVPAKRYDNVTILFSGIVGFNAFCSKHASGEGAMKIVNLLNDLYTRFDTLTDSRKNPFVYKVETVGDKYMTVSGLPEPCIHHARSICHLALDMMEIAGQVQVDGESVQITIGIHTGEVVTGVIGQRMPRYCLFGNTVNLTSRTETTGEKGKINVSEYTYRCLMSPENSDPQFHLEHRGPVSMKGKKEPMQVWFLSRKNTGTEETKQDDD
Assay: Cell-Based sGC Functional Assay (CASA Assay)
Conditions: CHO-K1/sGC cells, with ODQ incubation (10 μM), 1 hr at 37° C., intracellular cGMP by HTRF; for EC50: read-out: IP (nM) (inflection point); for fold induction: read-out: maximum fold induction over DMSO control
Protocol: Cell-Based sGC Functional Assay (CASA Assay)
Rationale: sGC is a heme-containing enzyme that converts GTP (guanosine 5′-triphosphate) to secondary messenger cGMP. Increases in cGMP levels affect several physiological processes including vasorelaxation through multiple downstream pathways. […] Heme-independent activators (HIAs) preferentially activate sGC containing a ferric heme group, which can be generated upon incubation with 1H-(1,2,4)oxadiazolo(4,3-a) quinoxalin-1-one (ODQ). To determine the effect of sGC activators on enzyme activity, the CASA assay was developed to monitor the generation of cGMP in a cell line that stably expresses the heterodimeric sGC protein.
Methods: A CHO-K1 cell line stably expressing the sGC αl/β1 heterodimer was generated using a standard transfection protocol. CHO-K1 cells were transfected with plasmids pIREShyghsGCα1 and pIRESneo-hsGCβ1 simultaneously using FUGENE reagent. Clones that stably express both subunits were selected with hygromycin and neomycin for ˜2 weeks. Clone #7 was chosen for the assay and was designated CHO-K1/sGC. CHO-K1/sGC cells were maintained in F-K12 medium containing 10% heat-inactivated Fetal Bovine Serum (FBS), 100 μg/mL penicillin/streptomycin, 0.5 mg/mL hygromycin and 0.25 mg/mL G418. On the day of the assay, cells were harvested in EBSS (Earle's balanced salt solution) Assay Buffer (EAB) containing 5 mM MgCl2, 10 mM HEPES (4-(2-hydroxyethyl)piperazine-1-ethanesulfonic acid) and 0.05% BSA (bovine serum albumin) and cell density was adjusted to 2×10^6/mL with EAB. IBMX (3-isobutyl-1-methylxanthin, 0.5 mM) was added to inhibit degradation of cGMP. Compounds were diluted from DMSO stock solutions and added to the assay at a final DMSO concentration of 1%. Cells were incubated with compounds in the presence and absence of 10 μM of 1H-(1,2,4)oxadiazolo(4,3-a) quinoxalin-1-one (ODQ) for 1 hr at 37° C. At the end of the incubation period, the reaction was terminated and the cells were lysed. The level of intracellular cGMP was determined using an HTRF-based assay kit (CisBio, 62GM2PEC), which detects the displacement of a fluorescence labeled cGMP from its specific antibody. The amount of cGMP was plotted against compound concentration in PRISM software and the inflection point (IP) and maximum fold induction over DMSO control were derived from the plot.

SMILES	EC50 [nM]	fold induction
O=C(O)c1cnn(-c2cccc(-c3cccc(C(F)(F)F)c3OCc3ccc(C4CCN(C(=O)C5CC5)CC4)cc3)n2)c1C(F)(F)F [Example 81, 1-(6-(2-((4-(1-(cyclopropylcarbonyl)piperidin-4-yl)benzyl)oxy)-3-(trifluoromethyl)phenyl)pyridin-2-yl)-5-(trifluoromethyl)-1H-pyrazole-4-carboxylic acid]	2.6	170
COC(=O)N1CCC(c2ccc(COc3c(-c4cccc(-n5ncc(C(=O)O)c5C(F)(F)F)n4)cccc3C(F)(F)F)cc2)CC1 [Example 77, 1-(6-(2-((4-(1-(methoxycarbonyl)piperidin-4-yl)benzyl)oxy)-3-(trifluoromethyl)phenyl)pyridin-2-yl)-5-(trifluoromethyl)-1H-pyrazole-4-carboxylic acid]	1.5	151
COC(=O)N1CCC(c2ccc(COc3c(F)cccc3-c3cccc(-n4ncc(C(=O)O)c4C(F)(F)F)n3)cc2)CC1 [Example 5, 1-{6-[3-fluoro-2-({4-[1-(methoxycarbonyl)piperidin-4 yl]benzyl}oxy)phenyl]pyridin-2-yl}-5-(trifluoromethyl)-1H-pyrazole-4-carboxylic acid]	26.9	244
O=C(O)c1cnn(-c2cccc(-c3cccc(Cl)c3OCc3ccc(C4CCN(C(=O)C5CC5)CC4)cc3)n2)c1C(F)(F)F [Example 84, 1-(6-(3-chloro-2-((4-(1-(cyclopropylcarbonyl)piperidin-4-yl)benzyl)oxy)phenyl)pyridin-2-yl)-5-(trifluoromethyl)-1H-pyrazole-4-carboxylic acid]	5.4	50
CCC(=O)N1CCC(c2ccc(COc3c(-c4cccc(-n5ncc(C(=O)O)c5C(F)(F)F)n4)cccc3C(F)(F)F)cc2)CC1 [Example 76, 1-(6-(2-((4-(1-propionylpiperidin-4-yl)benzyl)oxy)-3-(trifluoromethyl)phenyl)pyridin-2-yl)-5-(trifluoromethyl)-1H-pyrazole-4-carboxylic acid]	< 0.5	216

The remaining lines, values ahead:

EC50 [nM]	fold induction	SMILES
10.4	127	Cc1cc(C2CCN(CC(F)(F)F)CC2)ccc1COc1ccccc1-c1cccc(-n2ncc(C(=O)O)c2C(F)(F)F)n1 [Example 3, 1-(6-(2-((2-Methyl-4-(1-(2,2,2-trifluoroethyl)piperidin-4-yl)benzyl)oxy)phenyl)pyridin-2-yl)-5-(trifluoromethyl)-1H-pyrazole-4-carboxylic acid]
51.5	281	O=C(O)c1cnn(-c2cccc(-c3ccccc3OCc3ccc(C4CCN(CC(F)(F)F)CC4)cc3)n2)c1C(F)(F)F [Example 1, 1-[6-[2-[[4-[1-(2,2,2-Trifluoroethyl)-4-piperidinyl]phenyl]methoxy]phenyl]-2-pyridinyl]-5-(trifluoromethyl)-1H-pyrazole-4-carboxylic acid]
2.4	189	O=C(O)c1cnn(-c2cccc(-c3cc(F)cc(Cl)c3OCc3ccc(C4CCN(CC(F)(F)F)CC4)cc3)n2)c1C(F)(F)F [Example 2, 1-(6-(3-Chloro-5-fluoro-2-((4-(1-(2,2,2-trifluoroethyl)piperidin-4-yl)benzyl)oxy)phenyl)pyridin-2-yl)-5-(trifluoromethyl)-1H-pyrazole-4-carboxylic acid]
